Measurements from patent US10179785B2, “Imidazotriazinone or imidazopyrazinone derivatives, and use thereof” (ST PHARM CO., LTD., priority 2014, dated 2019).
Where a name gives a salt, the structure may show the parent alone. Read-outs that look alike come from different tables or passages of the source.

Target: T1, tankyrase 1 (Homo sapiens, UniProt O95271)
T1 construct: purchased Trevigen 4700-096-K
T1 sequence (O95271 1-1327): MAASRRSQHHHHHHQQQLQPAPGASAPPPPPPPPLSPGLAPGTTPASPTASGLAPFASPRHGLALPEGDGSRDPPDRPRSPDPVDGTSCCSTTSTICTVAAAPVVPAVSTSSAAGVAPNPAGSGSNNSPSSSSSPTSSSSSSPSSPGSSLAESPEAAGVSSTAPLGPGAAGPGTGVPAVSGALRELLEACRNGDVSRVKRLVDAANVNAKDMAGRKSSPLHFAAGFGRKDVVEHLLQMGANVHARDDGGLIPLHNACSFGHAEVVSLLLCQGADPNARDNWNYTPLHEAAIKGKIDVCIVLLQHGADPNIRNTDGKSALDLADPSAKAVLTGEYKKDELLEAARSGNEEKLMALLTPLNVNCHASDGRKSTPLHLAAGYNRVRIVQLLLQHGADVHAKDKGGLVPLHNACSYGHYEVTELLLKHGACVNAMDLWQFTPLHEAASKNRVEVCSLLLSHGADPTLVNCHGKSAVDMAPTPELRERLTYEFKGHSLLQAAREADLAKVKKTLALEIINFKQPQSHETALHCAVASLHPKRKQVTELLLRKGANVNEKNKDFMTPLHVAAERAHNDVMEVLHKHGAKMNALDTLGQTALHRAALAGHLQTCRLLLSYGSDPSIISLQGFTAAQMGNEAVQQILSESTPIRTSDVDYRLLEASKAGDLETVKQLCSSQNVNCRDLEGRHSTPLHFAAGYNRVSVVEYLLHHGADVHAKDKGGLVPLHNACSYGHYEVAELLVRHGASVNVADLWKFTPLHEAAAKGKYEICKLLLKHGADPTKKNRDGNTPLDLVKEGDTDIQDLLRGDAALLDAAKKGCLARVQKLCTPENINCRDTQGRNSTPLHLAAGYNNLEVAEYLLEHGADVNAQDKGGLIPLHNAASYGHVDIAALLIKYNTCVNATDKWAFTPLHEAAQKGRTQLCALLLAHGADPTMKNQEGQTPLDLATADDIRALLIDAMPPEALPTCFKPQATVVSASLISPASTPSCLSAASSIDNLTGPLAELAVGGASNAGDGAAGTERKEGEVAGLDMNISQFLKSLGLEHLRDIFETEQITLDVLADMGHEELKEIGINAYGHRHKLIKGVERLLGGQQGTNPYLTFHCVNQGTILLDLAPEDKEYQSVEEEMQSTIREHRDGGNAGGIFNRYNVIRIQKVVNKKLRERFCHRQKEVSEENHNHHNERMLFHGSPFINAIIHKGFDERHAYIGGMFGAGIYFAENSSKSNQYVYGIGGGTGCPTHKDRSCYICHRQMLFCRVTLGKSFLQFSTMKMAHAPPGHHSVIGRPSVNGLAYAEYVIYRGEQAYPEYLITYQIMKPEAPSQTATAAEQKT
Assay: Analysis of activity of tankyrase 1 (Trevigen kit, ELISA absorbance at 450 nm)
Assay type: biochemical
Procedure: Activities of novel compounds synthesized according to Examples 1 to 48 against tankyrase 1 were analyzed using a Trevigen kit (Cat. No. 4700-096-K). Poly PAR histone protein-coated 96-well plate, anti-PAR monoclonal antibody and goat anti-mouse IgG-HRP were used for measurement of absorbance by ELISA method. Specifically, 20× I-PAR assay buffer was diluted to 1× by adding water, and 50 μL of the diluted buffer was added to each well of the 96-well plate followed by reacting at rt for 30 min. Then, the supernatant was completely removed from each well and 10 μL of 1× I-PAR assay buffer and 15 μL of assay substrate were added to each well along with 1 μL of a 50× solution of inhibitors to be tested, which were the compounds obtained in the Examples 1 to 48. 10 m Units/μL of tankyrase 1 enzyme was diluted 50-fold with 1× I-PAR assay buffer and 25 μL of the diluted enzyme was added to each well and reacted while stirring at rt for 30 min. One without any compound of the present invention was used as a positive control and another containing 1× I-PAR assay buffer with the same volume instead of tankyrase 1 enzyme was used as a negative control. Upon completion of the reaction, 200 μL of PBSX, which was prepared by adding 0.1% triton X-100 to PBS, was added and removed and this washing process was repeated twice. Washing was repeated twice more using PBS in the same manner. 5× antibody diluent was diluted with distilled water to 1× concentration, 50 μL of the diluted goat anti-mouse IgG-HRP to 1/2000 was added to each well and reacted while stirring at rt for 30 min. Washes were carried out twice using PBSX and PBS, respectively. After addition of 50 μL of TACS-sapphire to each well of the plate, the plate was blocked from light to react for 10 min to 15 min and the color of the reaction solution turned blue. To stop the reaction, 50 μL of 0.2N HCl was added to turn the solution yellow. Finally, the absorbance of the resulting solution was measured at 450 nm.

[1] = Trevigen kit Cat. No. 4700-096-K, reaction at rt for 30 min, read-out: TNKS1 (IC50)

| Structure (SMILES) | IC50 [nM] | IC50 [1] [nM] |
| --- | --- | --- |
| Cc1ncc2c(=O)[nH]c(N3CCN(c4ccccc4F)CC3)nn12 [compound 1, 2-(4-(2-Fluorophenyl)piperazin-1-yl)-7-methylimidazo[1,5-f][1,2,4]triazin-4(3H)-one] | 110 |  |
| COCCOc1cc(F)c(N2CCN(c3nn4c(C)ncc4c(=O)[nH]3)CC2)c(F)c1 [compound 2, 2-(4-(2,6-Difluoro-4-(2-methoxyethoxy)phenyl)piperazin-1-yl)-7-methylimidazo[1,5-f][1,2,4]triazin-4(3H)-one] | 31.8 |  |
| Cc1ncc2c(=O)[nH]c(N3CCN(c4c(F)cc(OCc5ccccc5)cc4F)CC3)nn12 [compound 3, 2-(4-(4-(Benzyloxy)-2,6-difluorophenyl)piperazin-1-yl)-7-methylimidazo[1,5-f][1,2,4]triazin-4(3H)-one] |  | 494 |
| Cc1ncc2c(=O)[nH]c(N3CCN(c4c(F)cc(OCC(O)CO)cc4F)CC3)nn12 (stereo not shown) [compound 9, 2-(4-(4-(2,3-Dihydroxypropoxy)-2,6-difluorophenyl)piperazin-1-yl)-7-methylimidazo[1,5-f][1,2,4]triazin-4(3H)-one] |  | 79.5 |
| Cc1ncc2c(=O)[nH]c(N3CCN(c4c(F)cc(OC5COC5)cc4F)CC3)nn12 [compound 12, 2-(4-(2,6-Difluoro-4-(oxetan-3-yloxy)phenyl)piperazin-1-yl)-7-methylimidazo[1,5-f][1,2,4]triazin-4(3H)-one] | 96.3 |  |
| COC(C)c1cc(F)c(N2CCN(c3nn4c(C)ncc4c(=O)[nH]3)CC2)c(F)c1 (stereo not shown) [compound 14, 2-(4-(2,6-Difluoro-4-(1-methoxyethyl)phenyl)piperazin-1-yl)-7-methylimidazo[1,5-f][1,2,4]triazin-4(3H)-one] |  | 69.2 |
| Cc1ncc2c(=O)[nH]c(N3CCN(c4c(F)cccc4F)CC3)nn12 [compound 15, 2-(4-(2,6-Difluorophenyl)piperazin-1-yl)-7-methylimidazo[1,5-f][1,2,4]triazin-4(3H)-one] | 17.9 |  |
| COCCOc1cc(F)c(C2(O)CCN(c3nn4c(C)ncc4c(=O)[nH]3)CC2)c(F)c1 [compound 17, 2-(4-(2,6-Difluoro-4-(2-methoxyethoxy)phenyl)-4-hydroxypiperidin-1-yl)-7-methylimidazo[5,1-f][1,2,4]triazin-4(3H)-one] |  | 67.2 |
| COCCN(C)Cc1cc(F)c(N2CCN(c3nn4c(C)ncc4c(=O)[nH]3)CC2)c(F)c1 [compound 19, 2-(4-(2,6-Difluoro-4-(((2-methoxyethyl)(methyl)amino)methyl)phenyl)piperazin-1-yl)-7-methylimidazo[1,5-f][1,2,4]triazin-4(3H)-one] |  | 102 |
| Cc1ncc2c(=O)[nH]c(N3CCN(c4c(F)cc(OCCN5CCCC5)cc4F)CC3)nn12 [compound 24, 2-(4-(2,6-Difluoro-4-(2-(pyrrolidin-1-yl)ethoxy)phenyl)piperazin-1-yl)-7-methylimidazo[1,5-f][1,2,4]triazin-4(3H)-one] |  | 93.4 |
| Cc1ncc2c(=O)[nH]c(N3CCN(c4c(F)cc(OCCN5CCN(C)CC5)cc4F)CC3)nn12 [compound 25, 2-(4-(2,6-Difluoro-4-(2-(4-methylpiperazin-1-yl)ethoxy)phenyl)piperazin-1-yl)-7-methylimidazo[1,5-f][1,2,4]triazin-4(3H)-one] |  | 69.9 |
| Cc1ncc2c(=O)[nH]c(N3CCN(c4c(F)cc(OCC(=O)N5CCCC5)cc4F)CC3)nn12 [compound 29, 2-(4-(2,6-Difluoro-4-(2-oxo-2-(pyrrolidin-1-yl)ethoxy)phenyl)piperazin-1-yl)-7-methylimidazo[1,5-f][1,2,4]triazin-4(3H)-one] |  | 84.8 |
| Cc1ncc2c(=O)[nH]c(N3CCN(c4c(F)cc(OCCN=[N+]=[N-])cc4F)CC3)nn12 [compound 31, 2-(4-(4-(2-Azidoethoxy)-2,6-difluorophenyl)piperazin-1-yl)-7-methylimidazo[1,5-f][1,2,4]triazin-4(3H)-one] |  | 171 |

Next, values leading:

| IC50 [nM] | IC50 [1] [nM] | Structure (SMILES) |
| --- | --- | --- |
|  | 32.3 | Cc1ncc2c(=O)[nH]c(N3CCN(c4c(F)cc(OCCN5CCOCC5)cc4F)CC3)nn12 [compound 4, 2-(4-(2,6-Difluoro-4-(2-morpholinoethoxy)phenyl)piperazin-1-yl)-7-methylimidazo[1,5-f][1,2,4]triazin-4(3H)-one] |
|  | 25.2 | Cc1ncc2c(=O)[nH]c(N3CCN(c4c(F)cc(OCCN5CCCCC5)cc4F)CC3)nn12 [compound 5, 2-(4-(2,6-Difluoro-4-(2-(piperidin-1-yl)ethoxy)phenyl)piperazin-1-yl)-7-methylimidazo[1,5-f][1,2,4]triazin-4(3H)-one] |
|  | 19.6 | Cc1ncc2c(=O)[nH]c(N3CCN(c4c(F)cc(OCCN(C)C)cc4F)CC3)nn12 [compound 6, 2-(4-(4-(2-(Dimethylamino)ethoxy)-2,6-difluorophenyl)piperazin-1-yl)-7-methylimidazo[1,5-f][1,2,4]triazin-4(3H)-one] |
|  | 38.7 | Cc1ncc2c(=O)[nH]c(N3CCN(c4c(F)cc(OCCO)cc4F)CC3)nn12 [compound 7, 2-(4-(2,6-Difluoro-4-(2-hydroxyethoxy)phenyl)piperazin-1-yl)-7-methylimidazo[1,5-f][1,2,4]triazin-4(3H)-one] |
|  | 43.6 | Cc1ncc2c(=O)[nH]c(N3CCN(c4c(F)cc(OCCOC(=O)[C@H](C)N)cc4F)CC3)nn12 [compound 8, (S)-2-(3,5-Difluoro-4-(4-(7-methyl-4-oxo-3,4-dihydroimidazo[1,5-f][1,2,4]triazin-2-yl)piperazin-1-yl)phenoxy)ethyl 2-aminopropionate hydrochloride] |
|  | 48.8 | Cc1ncc2c(=O)[nH]c(N3CCN(c4c(F)cc(CN5CCOCC5)cc4F)CC3)nn12 [compound 10, 2-(4-(2,6-Difluoro-4-(morpholinomethyl)phenyl)piperazin-1-yl)-7-methylimidazo[1,5-f][1,2,4]triazin-4(3H)-one] |
|  | 44.1 | Cc1ncc2c(=O)[nH]c(N3CCN(c4c(F)cc(CN5CCN(C)CC5)cc4F)CC3)nn12 [compound 11, 2-(4-(2,6-Difluoro-4-((4-methylpiperazin-1-yl)methyl)phenyl)piperazin-1-yl)-7-methylimidazo[1,5-f][1,2,4]triazin-4(3H)-one] |
|  | 45.7 | Cc1ncc2c(=O)[nH]c(N3CCN(c4c(F)cc(C(C)O)cc4F)CC3)nn12 (stereo not shown) [compound 13, 2-(4-(2,6-Difluoro-4-(1-hydroxyethyl)phenyl)piperazin-1-yl)-7-methylimidazo[1,5-f][1,2,4]triazin-4(3H)-one] |
|  | 63.1 | Cc1ncc2c(=O)[nH]c(N3CCN(c4c(F)cc(OCC(=O)N5CCCCC5)cc4F)CC3)nn12 [compound 28, 2-(4-(2,6-Difluoro-4-(2-oxo-2-(piperidin-1-yl)ethoxy)phenyl)piperazin-1-yl)-7-methylimidazo[1,5-f][1,2,4]triazin-4(3H)-one] |
